Consider five compounds from patent publication US20030220524A1, “Sulfur containing compounds” (priority 2000, published 2003).

The structures appear in SMILES notation.

The test system of series [1] is Aspergillus niger. The experiment in a line: Antifungal paper disk test, diameter of clear zone. Conditions: 0.25 μg/disk; Appl'n Solvent DMSO. Format: cell-based.
The subject of series [2] is Aspergillus niger and Aspergillus flavus. The experiment in a line: Antifungal activity. The settings on record: in words; dose not given. Format: cell-based. As for the experimental part: (§1) Sulfur compounds were tested for antifungal activity against pure cultures of Aspergillus niger and Aspergillus flavus supplied by Ward's Natural Science Ltd (St. Catharines, Ontario, Canada). They were maintained on Sabouraud Dextrose Agar.
(§2) For the test, 6 agar plugs (5 mm diameter) were cut from a 5-8 day old colony and homogenized in distilled, sterilized water (2 ml). A portion of this suspension (0.5 ml) was transferred aseptically to a Petri plate with Sabouraud Dextrose Agar (15 ml) and spread evenly over the entire surface. Each plate was supplied with four evenly spaced paper disks (7 mm, Whatman Number 1 filter paper) containing the test compound (0, 25, 50 and 100 μg respectively). Each test compound was applied to the disks as a solution (50 mg compound/10 ml acetone). Control disks were treated with neat acetone (20 μl). Test plates with fungal homogenates and disks were incubated at 18-20° C. for 2 days. For each test four replicate plates were used. The diameter of the clear zone surrounding the disk was taken as the indicator of antifungal activity.

Series [3] has as its system Aspergillus flavus. The experiment in a line: Antifungal paper disk test, diameter of clear zone. Format: cell-based. The settings on record: 0.25 μg/disk; Appl'n Solvent DMSO.
Series [4] deals with Aspergillus niger. The experiment in a line: Antifungal paper disk test, diameter of clear zone. Format: cell-based. Here is the method: as §1
as §2, with “Each plate was supplied with four evenly spaced paper disks (7 mm, Whatman Number 1 filter paper) containing the test compound (0, 25, 50 and 100 μg respectively).” left out

Series [5] concerns Aspergillus flavus. The experiment in a line: Antifungal paper disk test, diameter of clear zone. Format: cell-based. As for the experimental part: as §1
as §2, with “Each plate was supplied with four evenly spaced paper disks (7 mm, Whatman Number 1 filter paper) containing the test compound (0, 25, 50 and 100 μg respectively).” left out

Series [6] relates to Normal bone marrow (mononucleated, T-cell depleted). The experiment in a line: MTT assay. Format: cell-based. Conditions: Normal bone marrow; 48 h; read-out: MTT50. As for the experimental part:
(§3) All cell lines were assayed as asynchronously growing cells. Leukemic cell lines, OCI-AML-2, OCI-AML-3 (referred to hereafter as AML-2 and AML-3, respectively), NB-4, KK, B1, G2, and W1 were cultured in alpha-minimal essential medium (α-MEM) (Princess Margaret Hospital Media Services) supplemented with 10% fetal bovine serum (FBS) (Sigma, St. Louis, Mo.). Non-transformed, diploid fibroblast lines WI38 and IMR90, were cultured in α-MEM and MEM F-15, respectively supplemented with 10% FBS. Media for IMR90 cells was also supplemented with 1.5 g/L bicarbonate and 1 mM pyruvate. Breast tumour cell lines, MDA-231, SK-BR-3, MCF-7, ZR-751, and melanoma tumour cell lines, WM9, WM983, WM793, 1232, were grown in α-MEM supplemented with 10% fetal bovine serum. Prostate tumour cell lines, DU145 and PC-3, were grown in RPMI 1640 media supplemented with 10% FBS. All cell lines were cultured in the presence of penicillin/streptomycin. Mononucleated cells were isolated from normal bone marrow using Ficoll hypaque and then T-cell depleted. T-cell depletion was performed by incubating the mononucleated bone marrow cells in α-MEM at a concentration of 2×10^7 cells/mL with 10% absor FBS and 10% (v/v) sheep red blood cells for 4 to 16 h. Absor FBS was prepared beforehand by heating FBS at 56° C. for 1 h, incubating with sheep red blood cells at 0.5% (v/v) for 1 h and then filtering the FBS with a […]. The T-cell depleted, mononucleated cells were recovered using Ficoll hypaque and were maintained in α-MEM supplemented with 20% FBS and 10% 5637 ? nditioned media. 5637 conditioned media ? s previously harvested from confluent 5637 cells after a 3 day incubation. Normal bone marrow from bone marrow transplant donor was collected following informed consent according to institutional guidelines.
(§4) Approximately 20 mg of each compound was dissolved in 5 mL of ACS grade acetone (Sigma) using a 5 mL volumetric flask. Stock solutions of the compounds were stored in the dark at −20° C. Compounds were diluted prior to each experiment.
(§5) Adherent cells were seeded at 67×10^3 cells/mL in a 96 well plate (Falcon, Mississauga, Ontario) the day prior to exposure to compound. Suspension cells were seeded at 27×10^4 cells/mL in a 96 well plate the day of exposure to compound. Mononucleated, T-cell depleted normal bone marrow cells were seeded at 67×10^4 cells/mL in a 96 well plate the day of exposure to compound. Compounds and solvent control were added to cells and assayed in triplicate or sextuplet. Following 48 h of incubation at 37° C. with 5% CO2, 40 μL of a 5 mg/mL solution of 3-[4,5-dimethylthiazol-2-yl]-2,5-diphenyltetrazolium bromide (MTT) substrate (Sigma) in Dulbecco's phosphate-buffered saline (D-PBS) was added. After 4 h of incubation at 37° C. with 5% CO2, the resulting violet formazan precipitate was solubilized by the addition of 80 μL of a 0.01 M HCI, 10% sodium dodecyl sulfate (SDS; Sigma) solution overnight at 37° C. with 5% CO2. The plates were then analyzed using the BioRad Benchmark Microplate Reader (BioRad Laboratories, Hercules, Calif.) at 570 nm to determine the optical density of the samples. MTT data was analyzed using Prism 3.0 (GraphPad Software, Inc., San Diego, Calif.) by the Chou-Talalay method. MTT graphs shown are a representative experiment.
(§6) Adherent cells were seeded at 67×10^3 cells/mL in a 96 well plate (Falcon, Mississauga, Ontario) the day prior to exposure to compound. Suspension cells were seeded at 27×10^4 cells/mL in a 96 well plate the day of exposure to compound. Mononucleated, T-cell depleted normal bone marrow cells were seeded at 67×10^4 cells/mL in a 96 well plate the day of exposure to compound. Compounds and solvent control were added to cells and assayed in triplicate or sextuplet. […]
(Tetrazolium dyes change colour on reduction, which living cells bring about.)

The next series concerns B1 leukemic cell line. The experiment in a line: MTT assay. The format is cell-based, human. Conditions: B1; 48 h; read-out: MTT50. As for the experimental part: as §3, §4, §5, §6
In another series the test system is AML-3 leukemic cell line. The experiment in a line: MTT assay. The format is cell-based, human. Conditions: AML-3; 48 h; read-out: MTT50. Here is the method: as §3, §4, §5, §6
For another series, the system named is G2 leukemic cell line. The experiment in a line: MTT assay. The format is cell-based, human. Conditions: 48 h, read-out: MTT50. Here is the method: as §3, §4, §5, §6
For a further series, the system named is KK leukemic cell line. The experiment in a line: MTT assay. Conditions: KK; 48 h; read-out: MTT50. Format: cell-based, human. As for the experimental part:
as §3, §4, §5, §6

A further series deals with W1 leukemic cell line. The experiment in a line: MTT assay. The settings on record: 48 h, read-out: MTT50. Format: cell-based, human. Here is the method:
as §3, §4, §5, §6

The subject of series [7] is Aspergillus niger and Aspergillus flavus. The experiment in a line: Antifungal activity. The format is cell-based. The settings on record: in words; 10 μg/disk.
[8] abbreviates: 0.25 μg/disk, Appl'n Solvent Acetone.

For `C[C@@H]1[C@H](O)[C@@H](C)/C=C/C=C/C=C/C=C/C=C/C=C/C=C/[C@H](O[C@@H]2O[C@H](C)[C@@H](O)[C@H](N)[C@@H]2O)C[C@@H]2O[C@](O)(C[C@@H](O)C[C@@H](O)[C@H](O)CC[C@@H](O)C[C@@H](O)CC(=O)O[C@H]1C)C[C@H](O)[C@H]2C(=O)O` [Amphotericin B, reference compound], the “Diameter (mm) of clear Zone A. niger” value in the series with Aspergillus niger [1] was 4.2 mm. In series [2], the Antifungal activity entry was “most potent of the 3 commercial antifungals tested”. Besides, the “Diameter (mm) of clear Zone A. flavus” value with Aspergillus flavus [3] was determined as 4.1 mm.

With `CCC(=O)OCSSCOC(=O)CC` [(C2H5C(O)OCH2S)2, 2,3-dithiabutane-1,4-dipropionate], the “Diameter (mm) of clear Zone A. niger” value in the series with Aspergillus niger [1] amounted to 8.0 mm; in the series with Aspergillus niger [4] (setting [8]) it was 3.6 mm. The “Diameter (mm) of clear Zone A. flavus” value in the series with Aspergillus flavus [5] (setting [8]) was determined as 6.7 mm; in the series on Aspergillus flavus [3], 6.1 mm.

Turning to `CS(=O)(=O)Sc1ccccc1` [L, Phenyl Methanethiosulfonate], the IC50 in series [6] was 44.2 µM; with B1 leukemic cell line it was 6.34 µM; in the series on AML-3 leukemic cell line it was 7.46 µM; with G2 leukemic cell line it was 3.8 µM; in the series with KK leukemic cell line it was 6.3 µM; with W1 leukemic cell line it was 7.26 µM. In addition, the “Diameter (mm) of clear Zone A. niger” value with Aspergillus niger [4] (25 μg/disk, acetone) was determined as 0 mm. For the same compound, the “Diameter (mm) of clear Zone A. flavus” value in the series with Aspergillus flavus [5] (25 μg/disk, acetone) turned out to be 3.7 mm.

As for `CSSc1ccccc1[N+](=O)[O-]` [o-O2N(C6H4)SSCH3, methyl o-nitrophenyl disulphide], the “Antifungal activity / fungitoxicity” value in series [7] was “pronounced toxicity”. Moreover, the zone of inhibition at 10 µg/disc with Aspergillus niger [4] (Aspergillus niger, 10 μg/disk, acetone) worked out at 2.8 mm; in the series with Aspergillus flavus [5] (Aspergillus flavus, 10 μg/disk, acetone) it was 1.9 mm.

By melting point is commonly meant the temperature of the solid-liquid transition. Regarding `CSSCCCS(C)(=O)=O` [CH3SO2CH2CH2CH2SSCH3, 2,3,7-trithiaoctane 7,7-dioxide], the melting point was in the range of 34.8 to 35.3 °C. The zone of inhibition at 100 µg/disc in the series on Aspergillus niger [4] (Aspergillus niger, 100 μg/disk, acetone, read-out: Diameter (mm) of clear Zone A. niger) was determined as 0 mm. Moreover, in the series on Aspergillus flavus [5] (Aspergillus flavus, 100 μg/disk, acetone, read-out: Diameter (mm) of clear Zone A. flavus), the zone of inhibition at 100 µg/disc stood at 0 mm.
